Experimental data published in US11174252B2, “Heterocyclic compounds as kinase inhibitors” (priority 2018, dated 2021).
Where two headings read alike, the source gives them in different places.

Experiments:
[1] = system: MCF-7; experiment: Cancer cell proliferation assay, single agent; type: cell-based; conditions: Homo sapiens
[2] = system: DU4475; experiment: Cancer cell proliferation assay, single agent; type: cell-based; conditions: Homo sapiens
[3] = target: FMS kinase (Homo sapiens (Human), UniProt P07333); experiment: LanthaScreen kinase assay (ATP, fluorescent-PolyGT substrate, TR-FRET); type: biochemical
FMS kinase, sequence (P07333 20-972): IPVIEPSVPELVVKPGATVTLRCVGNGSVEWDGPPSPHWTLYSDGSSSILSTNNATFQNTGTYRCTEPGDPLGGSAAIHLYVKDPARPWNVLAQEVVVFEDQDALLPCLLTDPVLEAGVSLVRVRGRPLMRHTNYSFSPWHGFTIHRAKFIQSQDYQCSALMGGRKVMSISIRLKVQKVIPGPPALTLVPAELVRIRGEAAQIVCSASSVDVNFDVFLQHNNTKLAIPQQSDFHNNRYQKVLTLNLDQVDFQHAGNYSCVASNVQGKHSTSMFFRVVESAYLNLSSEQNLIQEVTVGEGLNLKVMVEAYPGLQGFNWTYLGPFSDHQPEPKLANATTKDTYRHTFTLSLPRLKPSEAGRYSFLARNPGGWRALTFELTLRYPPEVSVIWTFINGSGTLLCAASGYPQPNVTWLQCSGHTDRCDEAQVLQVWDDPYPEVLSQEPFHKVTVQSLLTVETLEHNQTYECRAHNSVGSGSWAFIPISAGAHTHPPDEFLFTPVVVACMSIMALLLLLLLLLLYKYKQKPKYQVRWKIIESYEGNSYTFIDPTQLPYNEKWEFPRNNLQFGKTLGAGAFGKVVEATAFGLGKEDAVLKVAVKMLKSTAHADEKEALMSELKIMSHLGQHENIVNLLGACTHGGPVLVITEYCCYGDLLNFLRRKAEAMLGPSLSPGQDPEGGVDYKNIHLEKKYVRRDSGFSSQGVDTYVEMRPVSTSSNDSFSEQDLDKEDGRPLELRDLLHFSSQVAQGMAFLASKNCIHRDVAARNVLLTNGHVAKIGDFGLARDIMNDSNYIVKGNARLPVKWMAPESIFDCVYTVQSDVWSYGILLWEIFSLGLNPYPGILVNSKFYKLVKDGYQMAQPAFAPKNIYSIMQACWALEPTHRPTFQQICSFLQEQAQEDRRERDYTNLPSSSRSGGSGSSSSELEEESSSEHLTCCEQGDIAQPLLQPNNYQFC

[4] = target: CDK4 (Homo sapiens (Human), UniProt P11802); experiment: In vitro kinase inhibition, luminescence (ADP-Glo) with retinoblastoma substrate; type: biochemical
CDK4, sequence (P11802 whole entry): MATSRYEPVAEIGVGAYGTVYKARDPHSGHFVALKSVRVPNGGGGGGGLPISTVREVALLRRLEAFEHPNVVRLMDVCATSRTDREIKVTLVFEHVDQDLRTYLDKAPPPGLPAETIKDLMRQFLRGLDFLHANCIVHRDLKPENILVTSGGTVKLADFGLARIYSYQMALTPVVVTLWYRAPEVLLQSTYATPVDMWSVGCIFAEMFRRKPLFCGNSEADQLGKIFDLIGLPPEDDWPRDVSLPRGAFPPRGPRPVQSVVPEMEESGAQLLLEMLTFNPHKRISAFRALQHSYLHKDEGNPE
CDK4, sequence (P24385 whole entry partner): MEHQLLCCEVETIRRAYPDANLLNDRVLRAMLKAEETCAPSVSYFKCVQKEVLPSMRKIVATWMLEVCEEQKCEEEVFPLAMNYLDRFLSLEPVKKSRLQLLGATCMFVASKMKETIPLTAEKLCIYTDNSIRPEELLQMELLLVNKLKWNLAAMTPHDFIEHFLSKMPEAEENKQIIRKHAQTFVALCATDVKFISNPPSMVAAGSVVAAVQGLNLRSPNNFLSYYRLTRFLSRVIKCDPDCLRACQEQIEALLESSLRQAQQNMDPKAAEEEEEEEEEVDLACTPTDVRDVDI

[5] = target: CDK6 (Homo sapiens (Human), UniProt Q00534); experiment: biochemical; type: biochemical
[6] = MCF7, read-out: IC50 (nM) MCF-7
[7] = DU-4475, read-out: IC50 (nM) DU4475
[8] = MCF7, MCF-7 cells, treated for 24-168 hours, read-out: IC50 (nM) MCF-7
[9] = DU-4475, DU4475 cells, treated for 24-168 hours, read-out: IC50 (nM) DU4475

IC50 [1, 8] [nM]	IC50 [2, 9] [nM]	SMILES	IC50 [1, 6] [nM]	IC50 [2, 7] [nM]	IC50 [3] [nM]	IC50 [4] [nM]	IC50 [5] [nM]
–	–	CC(C)N1CCOc2c(F)cc(-c3nc(Nc4cn(C5CCNCC5)cn4)ncc3F)cc21 [Compound 504, 5-fluoro-4-(8-fluoro-4-isopropyl-3,4-dihydro-2H-benzo[b][1,4]oxazin-6-yl)-N-(1-(piperidin-4-yl)-1H-imidazol-4-yl)pyrimidin-2-amine]	1940	4150	–	–	–
–	–	Fc1cnc(Nc2ccc(N3CCNCC3)cn2)nc1-c1cc(F)c2c(c1)NCCO2 [Compound 3, 5-fluoro-4-(8-fluoro-3,4-dihydro-2H-benzo[b][1,4]oxazin-6-yl)-N-(5 (piperazin-1-yl)pyridin-2-yl)pyrimidin-2-amine]	–	–	> 5000	3	5.7
595	–	CC(C)N1CCOc2c(F)cc(-c3nc(Nc4ccc(C(=O)N5CCC(O)CC5)cn4)ncc3F)cc21 [Compound 460, (6-((5-fluoro-4-(8-fluoro-4-isopropyl-3,4-dihydro-2H-benzo[b][1,4]oxazin-6-yl)pyrimidin-2-yl)amino)pyridin-3-yl)(4-hydroxypiperidin-1-yl)methanone]	–	–	> 5000	13	18
–	–	CC(C)N1CCOc2c(F)cc(-c3nc(Nc4cn(C5CCN(C)CC5)cn4)ncc3F)cc21 [Compound 496, 5-fluoro-4-(8-fluoro-4-isopropyl-3,4-dihydro-2H-benzo[b][1,4]oxazin-6-yl)-N-(1-(1-methylpiperidin-4-yl)-1H-imidazol-4-yl)pyrimidin-2-amine]	1450	3420	–	–	–
–	–	CC1CN(c2ccc(Nc3ncc(F)c(-c4cc(F)c5c(c4)N(C(C)C)CCO5)n3)nc2)CCN1 (centres unmarked) [Compound 10, 5-fluoro-4-(8-fluoro-4-isopropyl-3,4-dihydro-2H-benzo[b][1,4]oxazin-6-yl)-N-(5-(3-methylpiperazin-1-yl)pyridin-2-yl)pyrimidin-2-amine]	280	–	570	4.5	2.5
13	< 7	CC(C)N1CCOc2c(F)cc(-c3nc(Nc4cccc(S(N)(=O)=O)c4)ncc3F)cc21 [Compound 520]	–	–	–	–	–
20	–	CC(C)N1CCOc2c(F)cc(-c3nc(Nc4ccc5c(c4)CCC(N(C)C)C5)ncc3F)cc21 (centres unmarked) [Compound 47, N6-(5-fluoro-4-(8-fluoro-4-isopropyl-3,4-dihydro-2H-benzo[b][1,4]oxazin-6-yl)pyrimidin-2-yl)-N2,N2-dimethyl-1,2,3,4-tetrahydronaphthalene-2,6-diamine]	–	–	2.5	3.5	4
–	–	CCN1CCOc2c(F)cc(-c3nc(Nc4ccc(N5CCNCC5)c(F)c4)ncc3F)cc21 [Compound 35, 4-(4-ethyl-8-fluoro-3,4-dihydro-2H-benzo[b][1,4]oxazin-6-yl)-5-fluoro-N-(3-fluoro-4-(piperazin-1-yl)phenyl)pyrimidin-2-amine]	20	–	58	2.5	3
670	–	CC(C)N1CCOc2c(F)cc(-c3nc(Nc4ccc5c(c4)CC(N(C)C)CC5)ncc3F)cc21 (centres unmarked) [Compound 206, N7-(5-fluoro-4-(8-fluoro-4-isopropyl-3,4-dihydro-2H-benzo[b][1,4]oxazin-6-yl)pyrimidin-2-yl)-N2,N2-dimethyl-1,2,3,4-tetrahydronaphthalene-2,7-diamine]	–	–	2.5	56	100
648	3790	CC1CN(C(=O)c2ccc(Nc3ncc(F)c(-c4cc(F)c5c(c4)N(C(C)C)CCO5)n3)nc2)CC(C)O1 (centres unmarked) [Compound 511, (2,6-dimethylmorpholino)(6-((5-fluoro-4-(8-fluoro-4-isopropyl-3,4-dihydro-2H-benzo[b][1,4]oxazin-6-yl)pyrimidin-2-yl)amino)pyridin-3-yl)methanone]	–	–	–	–	–
–	–	CN1CCOc2c(F)cc(-c3nc(Nc4ccc(N5CCNCC5)c(F)c4)ncc3F)cc21 [Compound 34, 5-fluoro-N-(3-fluoro-4-(piperazin-1-yl)phenyl)-4-(8-fluoro-4-methyl-3,4-dihydro-2H-benzo[b][1,4]oxazin-6-yl)pyrimidin-2-amine]	50	–	42	3	6
–	–	CC(C)N1CCOc2c(F)cc(-c3nc(Nc4ccc(N5CCNCC5)c(F)c4)ncc3Cl)cc21 [Compound 30, 5-chloro-N-(3-fluoro-4-(piperazin-1-yl)phenyl)-4-(8-fluoro-4-isopropyl-3,4-dihydro-2H-benzo[b][1,4]oxazin-6-yl)pyrimidin-2-amine]	233	–	79	1	13
–	–	CCN1CCN(Cc2ccc(Nc3ncc(F)c(-c4cc(F)c5c(c4)N(C4CCC(N)CC4)CCO5)n3)nc2)CC1 (centres unmarked) [Compound 9, 4-(4-(4-aminocyclohexyl)-8-fluoro-3,4-dihydro-2H-benzo[b][, 4]oxazin-6-yl)-N-(5-((4-ethylpiperazin-1-yl)methyl)pyridin-2-yl)-5-fluoropyrimidin-2-amine]	3260	–	> 5000	> 183	173
–	–	CCCN1CCOc2c(F)cc(-c3nc(Nc4ccc(N5CCNCC5)c(F)c4)ncc3F)cc21 [Compound 36, 5-fluoro-N-(3-fluoro-4-(piperazin-1-yl)phenyl)-4-(8-fluoro-4-propyl-3,4-dihydro-2H-benzo[b][1,4]oxazin-6-yl)pyrimidin-2-amine]	40	–	102	4	5
–	–	CC(C)N1C(=O)COc2c(F)cc(-c3nc(Nc4ccc(N5CCNCC5)cn4)ncc3F)cc21 [Compound 2, 8-fluoro-6-(5-fluoro-2-(5-(piperazin-1-yl)pyridin-2-ylamino)pyrimidin-4-yl)-4-isopropyl-2H-benzo[b][1,4]oxazin-3(4H)-one]	–	–	> 5000	6	6.9

SMILES	IC50 [1, 8] [nM]	IC50 [2, 9] [nM]	IC50 [1, 6] [nM]	IC50 [2, 7] [nM]	IC50 [3] [nM]	IC50 [4] [nM]	IC50 [5] [nM]
CC(C)N1CCOc2c(F)cc(-c3nc(Nc4ccc(C5CCNCC5)c(C(F)(F)F)c4)ncc3F)cc21 [Compound 438, 5-fluoro-4-(8-fluoro-4-isopropyl-3,4-dihydro-2H-benzo[b][1,4]oxazin-6-yl)-N-(4-(piperidin-4-yl)-3-(trifluoromethyl)phenyl)pyrimidin-2-amine]	200	–	–	–	5	41	74
CC1CN(C(C)C)c2cc(-c3nc(Nc4ccc(N5CCNCC5)c(F)c4)ncc3F)cc(F)c2O1 (centres unmarked) [Compound 32, 5-fluoro-N-(3-fluoro-4-(piperazin-1-yl)phenyl)-4-(8-fluoro-4-isopropyl-2-methyl-3,4-dihydro-2H-benzo[b][1,4]oxazin-6-yl)pyrimidin-2-amine]	130	–	–	–	177	12	21
COCCN1CCN(Cc2ccc(Nc3ncc(F)c(-c4cc(F)c5c(c4)N(C(C)C)CCO5)n3)nc2)CC1 [Compound 524, 5-fluoro-4-(8-fluoro-4-isopropyl-3,4-dihydro-2H-benzo[b][1,4]oxazin-6-yl)-N-(5-((4-(2-methoxyethyl)piperazin-1-yl)methyl)pyridin-2-yl)pyrimidin-2-amine]	332	–	–	–	–	3.5	7.5
CC(C)N1CCOc2c(Cl)cc(-c3nc(Nc4ccc(N5CCNCC5)c(F)c4)ncc3Cl)cc21 [Compound 52, 5-chloro-4-(8-chloro-4-isopropyl-3,4-dihydro-2H-benzo[b][1,4]oxazin-6-yl)-N-(3-fluoro-4-(piperazin-1-yl)phenyl)pyrimidin-2-amine]	695	–	–	–	14	89	200
